Earlier results in patent US12435156B2, “Methods for treating neuroblastoma with combination therapy” (MEMORIAL SLOAN-KETTERING CANCER CENTER, priority 2018, dated 2025).

Columns and labels:
[1] = human, in vivo
[2] = not given; remark: listed apart in the source
topoisomerase I = target: T1, topoisomerase I (Homo sapiens, UniProt P11387)
T1 sequence (P11387 1-765): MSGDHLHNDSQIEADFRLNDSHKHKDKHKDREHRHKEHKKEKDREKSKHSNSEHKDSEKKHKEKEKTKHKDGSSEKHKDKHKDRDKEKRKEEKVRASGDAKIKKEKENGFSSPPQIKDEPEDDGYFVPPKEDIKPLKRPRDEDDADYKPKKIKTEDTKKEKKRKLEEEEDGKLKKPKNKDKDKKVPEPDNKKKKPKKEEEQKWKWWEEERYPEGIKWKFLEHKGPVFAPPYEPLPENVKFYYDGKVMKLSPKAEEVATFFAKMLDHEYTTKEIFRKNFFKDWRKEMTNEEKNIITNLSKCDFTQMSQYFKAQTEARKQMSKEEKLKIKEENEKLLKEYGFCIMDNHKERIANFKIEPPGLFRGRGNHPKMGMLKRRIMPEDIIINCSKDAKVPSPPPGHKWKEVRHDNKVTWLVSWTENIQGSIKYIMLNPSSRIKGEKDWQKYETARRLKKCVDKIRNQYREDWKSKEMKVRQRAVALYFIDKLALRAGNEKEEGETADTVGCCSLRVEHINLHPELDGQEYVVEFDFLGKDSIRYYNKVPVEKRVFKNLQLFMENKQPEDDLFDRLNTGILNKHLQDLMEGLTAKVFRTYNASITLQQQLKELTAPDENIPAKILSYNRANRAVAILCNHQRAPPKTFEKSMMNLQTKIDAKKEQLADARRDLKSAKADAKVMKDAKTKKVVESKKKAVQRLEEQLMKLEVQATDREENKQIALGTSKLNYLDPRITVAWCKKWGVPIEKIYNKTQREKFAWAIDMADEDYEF

[3] = not given; remark: listed apart in the source
[4] = not given; remark: listed apart in the source

NC(=O)c1[nH]cnc1N [AIC]
Exposure relative to the AUC of temozolomide (in vivo): 23%

CCc1c2c(nc3ccc(OC(=O)N4CCC(N5CCCCC5)CC4)cc13)-c1cc3c(c(=O)n1C2)COC(=O)[C@]3(O)CC [Irinotecan, (S)-4,11-diethyl-4-hydroxy-3,14-dioxo-3,4,12,14-tetrahydro-1H-pyrano[3′,4′:6,7]indolizino[1,2-b]quinolin-9-yl [1,4′-bipiperidine]-1′-carboxylate]
Toxicity associated with treatment [1]: severe diarrhea, myelosuppression, and neutropenia | Water solubility [2]: water-soluble

CCc1c2c(nc3ccc(O)cc13)-c1cc3c(c(=O)n1C2)COC(=O)[C@]3(O)CC [SN-38, 7-ethyl-10-hydroxycamptothecin]
Topoisomerase I inhibitor potency/activity (topoisomerase I): much higher potency than irinotecan

CCc1c2c(nc3ccc(O[C@@H]4O[C@H](C(=O)O)[C@@H](O)[C@H](O)[C@H]4O)cc13)-c1cc3c(c(=O)n1C2)COC(=O)[C@]3(O)CC [SN-38G, SN-38 glucuronide]
Topoisomerase I inhibitor potency/activity (topoisomerase I): inactive

Cn1nnc2c(C(N)=O)ncn2c1=O [Temozolomide, 3,4-dihydro-3-methyl-4-oxoimidazo[5,1-d]-as-tetrazine-8-carboxamide]
Mean apparent volume of distribution (% CV=13%): 0.4 L/kg | Kinetics over the therapeutic dosing range (in vivo): linear kinetics | Overall clearance (in vivo): about 5.5 L/hr/m^2 | Absorption after oral administration (oral): rapidly and completely absorbed | Time of peak plasma concentrations (oral administration): 1 h | Administered total radioactive dose recovered in feces (over 7 days): 0.8% | Administered total radioactive dose recovered in urine (over 7 days): 37.7% | Administered total radioactive dose recovered (over 7 days, total): About 38% | Dose-limiting side effects [1]: hematologic toxicity, myelosuppression, anemia, and leukopenia | Stability at physiologic pH [3]: spontaneously hydrolyzed | Mean percent bound of drug-related total radioactivity (human plasma proteins): 15% | Role of cytochrome P450 enzymes in metabolism (Cytochrome P450 enzymes): only a minor role

Cn1nnc2c(C(=O)O)ncn2c1=O [temozolomide acid metabolite]
Recovery of radioactivity in urine as this species (after temozolomide radioactive dose): 2.3%

sargramostim: Yeast-derived human recombinant granulocyte-macrophage colony stimulating factor
Storage of liquid once the vial has been entered ([4]; 2-8° C.): up to 20 days | pH of reconstituted solution ([4]; 250 mcg vial reconstituted with 0.5 mL sterile water, 500 mcg/mL): 7.4±0.3 | Time to administration following reconstitution ([4]; single-use 250 mcg vials, no preservative): ≤ 6 h
